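GI50 is the concentration that inhibits growth by half. TGI denotes the concentration required for complete inhibition of growth.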
What was measured:
Experiment in all cases: NCI-60 cell line screen, 384-well format
NCI-H226 lung = test system: NCI-H226 lung
A549 NSCLC = test system: A549 NSCLC
KM12 colon = test system: KM12 colon
UACC-257 melanoma = test system: UACC-257 melanoma
OVCAR-5 ovarian = test system: OVCAR-5 ovarian
CAKI-1 renal = test system: CAKI-1 renal
DU-145 prostate = test system: DU-145 prostate
SR leukemia = test system: SR leukemia
HCT-15 colon = test system: HCT-15 colon
IGROV1 ovarian = test system: IGROV1 ovarian
786-0 renal = test system: 786-0 renal
K-562 leukemia = test system: K-562 leukemia
LOX IMVI melanoma = test system: LOX IMVI melanoma
SF-268 CNS = test system: SF-268 CNS
CCRF-CEM leukemia = test system: CCRF-CEM leukemia
HOP-62 NSCLC = test system: HOP-62 NSCLC
A498 renal = test system: A498 renal
NCI-H23 lung = test system: NCI-H23 lung
UO-31 renal = test system: UO-31 renal
MDA-MB-435 melanoma = test system: MDA-MB-435 melanoma
SF-295 CNS = test system: SF-295 CNS
TK-10 renal = test system: TK-10 renal
T-47D breast = test system: T-47D breast
SW-620 colon = test system: SW-620 colon
HOP-92 NSCLC = test system: HOP-92 NSCLC
RPMI-8226 leukemia = test system: RPMI-8226 leukemia
NCI-H522 lung = test system: NCI-H522 lung
SN12C renal = test system: SN12C renal
SK-MEL-5 melanoma = test system: SK-MEL-5 melanoma
PC-3 prostate = test system: PC-3 prostate
OVCAR-3 ovarian = test system: OVCAR-3 ovarian
HT29 colon = test system: HT29 colon
NCI-H322M lung = test system: NCI-H322M lung
COLO 205 colon = test system: COLO 205 colon
MOLT-4 leukemia = test system: MOLT-4 leukemia
ACHN renal = test system: ACHN renal
RXF 393 renal = test system: RXF 393 renal
HCC-2998 colon = test system: HCC-2998 colon
BT-549 breast = test system: BT-549 breast
SK-MEL-28 melanoma = test system: SK-MEL-28 melanoma
NCI/ADR-RES ovarian = test system: NCI/ADR-RES ovarian
SK-OV-3 ovarian = test system: SK-OV-3 ovarian
MDA-MB-231 breast = test system: MDA-MB-231 breast
SNB-75 CNS = test system: SNB-75 CNS
SF-539 CNS = test system: SF-539 CNS
EKVX NSCLC = test system: EKVX NSCLC
OVCAR-8 ovarian = test system: OVCAR-8 ovarian
HS 578T breast = test system: HS 578T breast
U251 glioblastoma = test system: U251 glioblastoma
HL-60(TB) leukemia = test system: HL-60(TB) leukemia
SNB-19 CNS = test system: SNB-19 CNS
M14 melanoma = test system: M14 melanoma
OVCAR-4 ovarian = test system: OVCAR-4 ovarian
HCT-116 colon = test system: HCT-116 colon
MCF7 breast = test system: MCF7 breast
MALME-3M melanoma = test system: MALME-3M melanoma
MDA-MB-468 breast = test system: MDA-MB-468 breast
NCI-H460 NSCLC = test system: NCI-H460 NSCLC

CC(C)(C)c1[nH]cnc1/C=c1\[nH]c(=O)/c(=C/c2ccccc2)[nH]c1=O
GI50 (NCI-H226 lung): < 10 nM | TGI (NCI-H226 lung): 26.2 nM | GI50 (A549 NSCLC): < 10 nM | TGI (A549 NSCLC): 16700 nM | GI50 (KM12 colon): < 10 nM | TGI (KM12 colon): 1250 nM | GI50 (UACC-257 melanoma): < 10 nM | TGI (UACC-257 melanoma): 18800 nM | GI50 (OVCAR-5 ovarian): 10900 nM | TGI (OVCAR-5 ovarian): 32900 nM | GI50 (CAKI-1 renal): < 10 nM | TGI (CAKI-1 renal): 13000 nM | GI50 (DU-145 prostate): < 10 nM | TGI (DU-145 prostate): 21.9 nM | GI50 (SR leukemia): < 10 nM | TGI (SR leukemia): < 10 nM | GI50 (HCT-15 colon): < 10 nM | TGI (HCT-15 colon): 22.5 nM | GI50 (IGROV1 ovarian): < 10 nM | TGI (IGROV1 ovarian): 10200 nM | GI50 ([…]-0 renal): < 10 nM | TGI (786-0 renal): 27 nM | GI50 (K-562 leukemia): < 10 nM | TGI (K-562 leukemia): < 10 nM | GI50 (LOX IMVI melanoma): < 10 nM | TGI (LOX IMVI melanoma): 30.5 nM | GI50 (SF-268 CNS): < 10 nM | TGI (SF-268 CNS): 49.1 nM | GI50 (CCRF-CEM leukemia): < 10 nM | TGI (CCRF-CEM leukemia): < 10 nM | GI50 (HOP-62 NSCLC): < 10 nM | TGI (HOP-62 NSCLC): 304 nM | GI50 (A498 renal): < 10 nM | TGI (A498 renal): 265 nM | GI50 (NCI-H23 lung): < 10 nM | TGI (NCI-H23 lung): < 10 nM | GI50 (UO-31 renal): < 10 nM | TGI (UO-31 renal): 14500 nM | GI50 (MDA-MB-435 melanoma): < 10 nM | TGI (MDA-MB-435 melanoma): < 10 nM | GI50 (SF-295 CNS): < 10 nM | TGI (SF-295 CNS): < 10 nM | GI50 (TK-10 renal): < 10 nM | TGI (TK-10 renal): 16400 nM | GI50 (T-47D breast): < 10 nM | TGI (T-47D breast): 7150 nM | GI50 (SW-620 colon): < 10 nM | TGI (SW-620 colon): 17500 nM | GI50 (HOP-92 NSCLC): < 10 nM | TGI (HOP-92 NSCLC): 2810 nM | GI50 (RPMI-8226 leukemia): < 10 nM | TGI (RPMI-8226 leukemia): < 10 nM | GI50 (NCI-H522 lung): < 10 nM | TGI (NCI-H522 lung): < 10 nM | GI50 (SN12C renal): < 10 nM | TGI (SN12C renal): 4230 nM | GI50 (SK-MEL-5 melanoma): < 10 nM | TGI (SK-MEL-5 melanoma): < 10 nM | GI50 (PC-3 prostate): < 10 nM | TGI (PC-3 prostate): 14900 nM | GI50 (OVCAR-3 ovarian): < 10 nM | TGI (OVCAR-3 ovarian): < 10 nM | GI50 (HT29 colon): < 10 nM | TGI (HT29 colon): 12900 nM | GI50 (NCI-H322M lung): < 10 nM | TGI (NCI-H322M lung): 15200 nM | GI50 (COLO 205 colon): < 10 nM | TGI (COLO 205 colon): < 10 nM | GI50 (MOLT-4 leukemia): < 10 nM | TGI (MOLT-4 leukemia): < 10 nM | GI50 (ACHN renal): < 10 nM | TGI (ACHN renal): 13300 nM | GI50 (RXF 393 renal): < 10 nM | TGI (RXF 393 renal): < 10 nM | GI50 (HCC-2998 colon): < 10 nM | TGI (HCC-2998 colon): 22.1 nM | GI50 (BT-549 breast): < 10 nM | TGI (BT-549 breast): 25.5 nM | GI50 (SK-MEL-28 melanoma): 1750 nM | TGI (SK-MEL-28 melanoma): 20400 nM | GI50 (NCI/ADR-RES ovarian): < 10 nM | TGI (NCI/ADR-RES ovarian): < 10 nM | GI50 (SK-OV-3 ovarian): < 10 nM | TGI (SK-OV-3 ovarian): 746 nM | GI50 (MDA-MB-231 breast): 10.7 nM | TGI (MDA-MB-231 breast): 19700 nM | GI50 (SNB-75 CNS): < 10 nM | TGI (SNB-75 CNS): 78.3 nM | GI50 (SF-539 CNS): < 10 nM | TGI (SF-539 CNS): < 10 nM | GI50 (EKVX NSCLC): < 10 nM | TGI (EKVX NSCLC): 13000 nM | GI50 (OVCAR-8 ovarian): < 10 nM | TGI (OVCAR-8 ovarian): 15.9 nM | GI50 (HS 578T breast): < 10 nM | TGI (HS 578T breast): < 10 nM | GI50 (U251 glioblastoma): < 10 nM | TGI (U251 glioblastoma): 16.8 nM | GI50 (HL-60(TB) leukemia): < 10 nM | TGI (HL-60(TB) leukemia): < 10 nM | GI50 (SNB-19 CNS): < 10 nM | TGI (SNB-19 CNS): 11000 nM | GI50 (M14 melanoma): < 10 nM | TGI (M14 melanoma): < 10 nM | GI50 (OVCAR-4 ovarian): < 10 nM | TGI (OVCAR-4 ovarian): 3720 nM | GI50 (HCT-116 colon): < 10 nM | TGI (HCT-116 colon): 39.3 nM | GI50 (MCF7 breast): < 10 nM | TGI (MCF7 breast): 10300 nM | GI50 (MALME-3M melanoma): < 10 nM | TGI (MALME-3M melanoma): 16500 nM | GI50 (MDA-MB-468 breast): 10.3 nM | TGI (MDA-MB-468 breast): 24.6 nM | GI50 (NCI-H460 NSCLC): < 10 nM | TGI (NCI-H460 NSCLC): < 10 nM
